Results: patent publication US9433663B2, “Mobilization of hematopoietic stem cells” (Children's Hospital Medical Center, priority 2008, dated 2016)

Legend:
[1] = tested on: Swiss 3T3 fibroblasts; assay: actin cytoskeleton rearrangement in Swiss 3T3 fibroblasts; assay type: cell-based, murine; details: serum-starved Swiss 3T3 cells, in the presence of CASIN
Text: (§1) To investigate the Cdc42-dependent cytoskeleton rearrangement, Swiss 3T3 fibroblasts were used since it was abundantly elaborated in Swiss 3T3 fibroblats that bradykinin induces actin filopodia formation through activating Cdc42, whereas PDGF activates Rac1 and induces Rac-mediated membrane lamellipoidia, and LPA responsible for RhoA activation, eliciting RhoA-medicated formation of actin stress fibers and focal adhesion assembly (Ridley, A. J. et al. Cell 70, 401-410 (1992); Ridley, A. J. et al. Cell 70, 389-399 (1992); Kozma, R. et al. Mol Cell Biol 15, 1942-1952 (1995)).
[…] cells were seeded in Dulbecco's modified Eagle's medium (DMEM) supplemented with 10% calf serum on glass coverslips at a density of 10^5 cells per well in 8-well chambers. 24 hrs after cell seeding, cells were starved in serum-free DMEM for 24 h in the presence or absence of 5 μM or 10 μM CASIN for the last 2 hrs. cells then were stimulated with 5 ng/ml PDGF, 40 ng/ml LPA, or 100 ng/ml bradykinin, then fixed for immunofluorescence analysis. Immunostaining of F-actin with Rhodamine conjugated-phalloidin (Invitrogen) was carried out as described previously (Shutes, A., et al. J Biol Chem 282, 35666-35678 (2007)).

[2] = tested on: LT-HSC, ST-HSC, and MPP; assay: Example 8 kinetics of BM HSC number, cell cycle and reconstitution; assay type: in vivo, C57Bl/6 mice
Method: To monitor the kinetics of CASIN effects on cell number, proliferation, and cell cycle change of HSCs, four time points post-CASIN-administration are focused on in this part. The determination of the four time points depends on the PD analysis to reflect the kinetics of HSCs from relatively quiescent state through proliferative state back to the quiescent state. In this study, the following time points are used: 0, 24, 48, and 96 hours postdosing as an example. Again C57Bl/6 mice are used here. Three subpopulations of HSC/P are investigated and phenotypically defined by flow cytometry: (1) Long-term reconstituting Flk-2-HSC (LT-HSC) subset (Lin−/c-Kit+/Sca-1+/Thy1.1int/FLK2−) capable of extensive self-renewal; (2) Short-term reconstituting Flk-2int HSC(ST-HSCF) subset (Lin−/c-K1t+/Sca-1+/Thy1.1int/FLK2int), which self-renews for a limited interval; (3) Nonself-renewing Flk-2+ multipotent progenitor (MPPF) subset (Lin−/c-K1t+/Sca-1+/Thy1.1int/FLK2+).
Harvest of PB and BM: At 0, 24, 48, and 96 h post CASIN injection, the mice are sacrificed, and then the marrow is flushed from the femurs and tibias of C57Bl/6 mice and the blood cells are collected by cardiac incision.
Change of the frequency and total number of subpopulations of HSC/Ps in BM and PB: Both PB and BM cells are further prepared for flow cytometry analysis. Then, the frequencies of LT-HSC, ST-HSC, and MPP along the four time points are determined using the combinations of cell surface markers mentioned above phenotypically by flow cytometry. The absolute numbers of different subpopulations of HSC in BM and PB are calculated according to the total cellularity of BM and PB of the mice.
Cell cycle analysis: To characterize the cell cycle status of subpopulations of HSCs following treatment with CASIN, double-sorted cells are stained with Hoechst 33342 and Pyronin Y (H/PY), allowing simultaneous assessment of the fraction of cells with more than 2n DNA content (Hoechst 33342), as well as relative levels of total double-stranded RNA (PY). […]

[3] = target: Rac (Homo sapiens, UniProt P63000); assay: nucleotide exchange: Tiam-induced exchange of mant-GDP with Rac; assay type: biochemical
Text: For example, even at 10 times the IC50 of Cdc42, a 50% inhibition of the association of mant-GDP with Rac or Rho was not achieved.

[4] = target: Cdc42 (Mus musculus, UniProt P60766); assay: Cdc42 activity (effector pulldown) in primary murine fibroblasts; assay type: cell-based; design: endogenous in cells; host or cells: murine low density bone marrow (LDBM) cells; details: Cdc42GAP^−/− primary murine fibroblasts
Sequence of Cdc42 (P60766 whole entry): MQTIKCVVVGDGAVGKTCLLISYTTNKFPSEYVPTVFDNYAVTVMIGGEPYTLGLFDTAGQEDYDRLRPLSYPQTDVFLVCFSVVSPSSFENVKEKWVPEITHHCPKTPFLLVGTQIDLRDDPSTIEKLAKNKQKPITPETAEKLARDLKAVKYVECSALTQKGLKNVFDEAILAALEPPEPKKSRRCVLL
Text: as §1
To analyze the effects of CASIN on the formation of active GTP-bound Cdc42, RhoA, and Rac1, effector pulldown assays were carried out as described previously. Cdc42GAP^−/− MEF, LDBM, CD34^+ hCB cells were treated with CASIN at doses of 5-20 μM in parallel with vehicle control for 2 hrs after overnight starvation, and stimulated with cytokines subsequently. And then cells were lysed in a buffer containing 20 mM Tris-HCL (pH 7.6), 100 mM NaCl, 1% Triton X-100, 10 mM MgCl2, 2 mM NaF, and Protease inhibitor cocktail (Roche Diagnostics). Lysates were incubated with GST-P21-binding domain of PAK1 for RAC1-GTP and Cdc42-GTP, and GST-RBD domain of Rhotekin for RhoA-GTP respectively. […]

## OCCNC1CCCc2c1[nH]c1ccc(-c3ccccc3)cc21 (stereo not drawn) [CASIN]
[1]
  LPA-induced actin stress fiber formation: still induced their respective changes in actin reorganization
  PDGF-induced lamellipodia formation: still induced their respective changes in actin reorganization
  bradykinin-induced filopodia formation: suppressed completely
[2]; 48 hours post injection, compared to non-treated mice
  reconstitution frequency of BM LT-HSCs: significantly decreases
[2]; after CASIN administration
  cell cycle status of HSC/P subpopulations (H/PY staining): decreased frequencies of cells in G0 phase
[2]; post-CASIN administration
  numbers and frequencies of LT-HSC, ST-HSC, and MPP population in BM: increase dramatically up to 48 h post-CASIN administration
[3]; FIG. 6
  Tiam induced nucleotide exchange of mant-GDP with Rac: did not affect
[3]; at 10 times the IC50 of Cdc42
  inhibition of the association of mant-GDP with Rac: < 50%
[4]
  Cdc42 activity: dose-dependently inhibited
